Measured values as given in ChEMBL document CHEMBL3992519 (J Med Chem, 2017).

Legend:
[1] = target: T1, Orexin/Hypocretin receptor type 1 (Homo sapiens, UniProt O43613); test: Antagonist activity at human OX1R expressed in CHOK1 cells assessed as inhibition of orexin A-induced intracellular calcium level preincubated for 15 mins followed by orexin A addition by Fura-2-AM dye based fluorescence assay
T1 sequence (O43613 whole entry): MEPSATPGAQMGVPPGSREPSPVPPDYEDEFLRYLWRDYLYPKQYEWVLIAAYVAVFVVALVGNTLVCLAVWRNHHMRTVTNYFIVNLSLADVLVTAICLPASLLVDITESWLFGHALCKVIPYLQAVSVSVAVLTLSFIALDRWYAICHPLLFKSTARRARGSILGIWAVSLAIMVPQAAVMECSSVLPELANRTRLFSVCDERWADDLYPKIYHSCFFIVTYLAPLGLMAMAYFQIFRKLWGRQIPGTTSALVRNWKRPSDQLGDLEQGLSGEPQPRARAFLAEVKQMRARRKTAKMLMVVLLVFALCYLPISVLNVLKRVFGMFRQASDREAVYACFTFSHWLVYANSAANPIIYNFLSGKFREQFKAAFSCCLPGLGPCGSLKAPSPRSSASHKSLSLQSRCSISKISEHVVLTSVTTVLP

[2] = Solubility of the compound in water; format: physicochemical; conditions: buffer
[3] = Selectivity index, ratio of IC50 for human OX2R expressed in CHOK1 cells to IC50 for human OX1R expressed in CHOK1 cells
[4] = Solubility of the compound in saline; format: physicochemical; conditions: buffer

| SMILES | Ki [1] [nM] | solubility [2] | Ratio IC50 [3] | solubility [4] |
| --- | --- | --- | --- | --- |
| CN(C(=O)/C=C/c1ccco1)[C@@H]1CC[C@@]2(O)[C@H]3Cc4ccc(O)c5c4[C@@]2(CCN3CC2CC2)[C@H]1O5 | 751 | Insoluble | <88.4 | Insoluble |
| COc1ccc2c3c1O[C@H]1[C@H](N(C)C(=O)/C=C/c4ccoc4)CC[C@@]4(O)[C@@H](C2)N(S(=O)(=O)c2ccc(F)cc2)CC[C@]314 | 4.05 | Insoluble | <88.4 | Insoluble |
| COc1ccc2c3c1O[C@H]1[C@H](N(C)C(=O)/C=C/c4ccoc4)CC[C@@]4(O)[C@@H](C2)N(S(=O)(=O)c2ccccc2N(C)C)CC[C@]314.Cl | 1.92 | Insoluble | <88.4 | Insoluble |
| COc1ccc2c3c1O[C@H]1[C@H](N(C)C(=O)/C=C/c4ccoc4)CC[C@@]4(O)[C@@H](C2)N(S(=O)(=O)c2cccc(N(C)C)c2)CC[C@]314.Cl | 7.25 | Insoluble | <88.4 | Insoluble |
| COc1ccc2c3c1O[C@H]1[C@H](N(C)C(=O)/C=C/c4ccoc4)CC[C@@]4(O)[C@@H](C2)N(S(=O)(=O)c2ccc(C#N)cc2)CC[C@]314 | 13.9 | Insoluble | <88.4 | Insoluble |
| CN(C)c1ccc(S(=O)(=O)N2CC[C@]34c5c6ccc(O)c5O[C@H]3[C@H](N(C)C(=O)/C=C/c3ccoc3)CC[C@@]4(O)[C@H]2C6)cc1 | 320 | – | – | – |
| COc1ccc2c3c1O[C@H]1[C@H](N(C)C(=O)/C=C/c4ccoc4)CC[C@@]4(O)[C@@H](C2)N(S(=O)(=O)c2ccccc2Br)CC[C@]314 | 2.1 | Insoluble | <88.4 | Insoluble |
| COc1ccc2c3c1O[C@H]1[C@H](N(C)C(=O)/C=C/c4ccoc4)CC[C@@]4(O)[C@@H](C2)N(S(=O)(=O)c2ccc(C)cc2)CC[C@]314 | 5.85 | Insoluble | <88.4 | Insoluble |
| CN(Cc1ccccc1)[C@@H]1CC[C@@]2(O)[C@H]3Cc4ccc(O)c5c4[C@@]2(CCN3CC2CC2)[C@H]1O5.Cl | – | Insoluble | <88.4 | Insoluble |
| COc1ccc2c3c1O[C@H]1[C@H](N(C)C(=O)/C=C/c4ccoc4)CC[C@@]4(O)[C@@H](C2)N(S(=O)(=O)c2cccc(C#N)c2)CC[C@]314 | 7.3 | Insoluble | <88.4 | Insoluble |
| COc1ccc2c3c1O[C@H]1[C@H](N(C)C(=O)/C=C/c4cccnc4)CC[C@@]4(O)[C@@H](C2)N(S(=O)(=O)c2ccccc2N(C)C)CC[C@]314 | 42.3 | – | – | – |
| COc1ccc2c3c1O[C@H]1[C@H](N(C)C(=O)/C=C/c4ccoc4)CC[C@@]4(O)[C@@H](C2)N(S(=O)(=O)c2ccccc2C(F)(F)F)CC[C@]314 | 2.05 | Insoluble | <88.4 | Insoluble |
| COc1ccc2c3c1O[C@H]1[C@H](N(C)C(=O)/C=C/c4ccoc4)CC[C@@]4(O)[C@@H](C2)N(S(=O)(=O)c2ccccc2C#N)CC[C@]314 | 1.96 | Insoluble | <88.4 | Insoluble |
| COc1ccc2c3c1O[C@H]1[C@H](N(C)C(=O)/C=C/c4ccoc4)CC[C@@]4(O)[C@@H](C2)N(S(=O)(=O)c2cccc(C)c2)CC[C@]314 | 2.98 | Insoluble | <88.4 | Insoluble |
| COc1ccc2c3c1O[C@H]1[C@H](N(C)C(=O)/C=C/c4ccoc4)CC[C@@]4(O)[C@@H](C2)N(S(=O)(=O)c2ccccc2C)CC[C@]314 | 1.7 | Insoluble | <88.4 | Insoluble |
| COc1ccc2c3c1O[C@H]1[C@H](N(C)C(=O)/C=C/c4ccoc4)CC[C@@]4(O)[C@@H](C2)N(S(=O)(=O)c2cccc(C(F)(F)F)c2)CC[C@]314 | 6.19 | Insoluble | <88.4 | Insoluble |
| COc1cccc(S(=O)(=O)N2CC[C@]34c5c6ccc(OC)c5O[C@H]3[C@H](N(C)C(=O)/C=C/c3ccoc3)CC[C@@]4(O)[C@H]2C6)c1 | 2.44 | Insoluble | <88.4 | Insoluble |

| SMILES | Ki [1] [nM] | solubility [2] | Ratio IC50 [3] | solubility [4] |
| --- | --- | --- | --- | --- |
| COc1ccc2c3c1O[C@H]1[C@H](N(C)C(=O)/C=C/c4ccoc4)CC[C@@]4(O)[C@@H](C2)N(S(=O)(=O)C2CC2)CC[C@]314 | 12.1 | Insoluble | <88.4 | Insoluble |
| COc1ccc2c3c1O[C@H]1[C@H](N(C)C(=O)/C=C/c4ccoc4)CC[C@@]4(O)[C@@H](C2)N(S(=O)(=O)c2ccc(Cl)cc2)CC[C@]314 | 5.13 | Insoluble | <88.4 | Insoluble |
| COc1ccc2c3c1O[C@H]1[C@H](N(C)C(=O)/C=C/c4ccoc4)CC[C@@]4(O)[C@@H](C2)N(S(=O)(=O)c2cccc(Cl)c2)CC[C@]314 | 3.47 | Insoluble | <88.4 | Insoluble |
| COc1ccc2c3c1O[C@H]1[C@H](N(C)C(=O)/C=C/c4ccoc4)CC[C@@]4(O)[C@@H](C2)N(S(=O)(=O)c2cccc([N+](=O)[O-])c2)CC[C@]314 | 5.05 | Insoluble | <88.4 | Insoluble |
| COc1ccc2c3c1O[C@H]1[C@H](N(C)C(=O)/C=C/c4ccoc4)CC[C@@]4(O)[C@@H](C2)N(S(=O)(=O)c2cccc(Br)c2)CC[C@]314 | 2.27 | Insoluble | <88.4 | Insoluble |
| COc1ccc2c3c1O[C@H]1[C@H](N(C)C(=O)/C=C/c4ccoc4)CC[C@@]4(O)[C@@H](C2)N(S(=O)(=O)c2ccc([N+](=O)[O-])cc2)CC[C@]314 | 12.5 | Insoluble | <88.4 | Insoluble |
| CCCCS(=O)(=O)N1CC[C@]23c4c5ccc(OC)c4O[C@H]2[C@H](N(C)C(=O)/C=C/c2ccoc2)CC[C@@]3(O)[C@H]1C5 | 5.94 | Insoluble | <88.4 | Insoluble |
| COc1ccc2c3c1O[C@H]1[C@H](N(C)C(=O)/C=C/c4ccccn4)CC[C@@]4(O)[C@@H](C2)N(S(=O)(=O)c2ccccc2N(C)C)CC[C@]314 | 1.36 | – | – | – |
| COc1ccc2c3c1O[C@H]1[C@H](N(C)C(=O)/C=C/c4ccoc4)CC[C@@]4(O)[C@@H](C2)N(S(=O)(=O)c2cccc(F)c2)CC[C@]314 | 7.6 | Insoluble | <88.4 | Insoluble |
| COc1ccccc1S(=O)(=O)N1CC[C@]23c4c5ccc(OC)c4O[C@H]2[C@H](N(C)C(=O)/C=C/c2ccoc2)CC[C@@]3(O)[C@H]1C5 | 6.37 | Insoluble | <88.4 | Insoluble |
| COc1ccc(S(=O)(=O)N2CC[C@]34c5c6ccc(OC)c5O[C@H]3[C@H](N(C)C(=O)/C=C/c3ccoc3)CC[C@@]4(O)[C@H]2C6)cc1 | 8.99 | Insoluble | <88.4 | Insoluble |
| CN(C(=O)/C=C/c1ccccc1)[C@@H]1CC[C@@]2(O)[C@H]3Cc4ccc(O)c5c4[C@@]2(CCN3CC2CC2)[C@H]1O5.Cl | 389 | Insoluble | <88.4 | Insoluble |
| COc1ccc2c3c1O[C@H]1[C@H](N(C)C(=O)/C=C/c4ccoc4)CC[C@@]4(O)[C@@H](C2)N(S(=O)(=O)c2c(C)cc(C)cc2C)CC[C@]314 | 4.16 | Insoluble | <88.4 | Insoluble |
| COc1ccc2c3c1O[C@H]1[C@H](N(C)C(=O)/C=C/c4ccoc4)CC[C@@]4(O)[C@@H](C2)N(S(=O)(=O)c2ccccc2F)CC[C@]314 | 2.07 | Insoluble | <88.4 | Insoluble |
| COc1ccc2c3c1O[C@H]1[C@H](N(C)C(=O)/C=C/c4ccoc4)CC[C@@]4(O)[C@@H](C2)N(S(=O)(=O)c2ccc(Br)cc2)CC[C@]314 | 6.21 | Insoluble | <88.4 | Insoluble |
| COc1ccc2c3c1O[C@H]1[C@H](N(C)C(=O)/C=C/c4ccoc4)CC[C@@]4(O)[C@@H](C2)N(C(C)=O)CC[C@]314 | 541 | Insoluble | <88.4 | Insoluble |
| COc1ccc2c3c1O[C@H]1[C@H](N(C)C(=O)/C=C/c4ccoc4)CC[C@@]4(O)[C@@H](C2)N(S(=O)(=O)c2ccccc2Cl)CC[C@]314 | 1.93 | Insoluble | <88.4 | Insoluble |
